Experiment: Kinetic solubility of compound at pH 6.8
Type: physicochemical
Conditions: buffer

SMILES	Kinetic_solubility [µg/mL]
O=C(NC1CCCC1)[C@@H]1Cc2cccc(c2)Oc2cccc(c2)C[C@H](N2CCCS2(=O)=O)C(=O)N[C@@H](CCN2CCOCC2)C(=O)N1	> 130
O=C(NCC1CC1)[C@@H]1Cc2cccc(c2)Oc2cccc(c2)C[C@H](N2CCCC2=O)C(=O)N[C@@H](CCN2CCCCC2)C(=O)N1	> 130
CCC[C@@H]1NC(=O)[C@@H](NC(C)=O)Cc2cccc(c2)Oc2cccc(c2)C[C@@H](C(=O)NCC(F)(F)F)NC1=O	< 1.9
Cn1cc(CNC(=O)[C@@H]2Cc3cccc(c3)Oc3cccc(c3)C[C@H](N3CCCC3=O)C(=O)N[C@@H](CCN3CCCCC3)C(=O)N2)cn1	> 150
O=C(NC1CCCC1)[C@@H]1Cc2cccc(c2)Oc2cccc(c2)C[C@H](N2CCCC2=O)C(=O)N[C@@H](CCN2CCCCC2)C(=O)N1	> 140
O=C(NCC(F)(F)F)[C@@H]1Cc2cccc(c2)Oc2cccc(c2)C[C@H](N2CCOC2=O)C(=O)N[C@@H](CCN2CCCCC2)C(=O)N1	65
O=C(NCC(F)(F)F)[C@@H]1Cc2cccc(c2)Oc2cccc(c2)C[C@H](N2CCCC2=O)C(=O)N[C@@H](CCN2CCC(F)(F)CC2)C(=O)N1	> 140
CN1C(=O)[C@H](CCc2ccccc2)N(C)C(=O)[C@@H](N2CCCC2=O)Cc2cccc(c2)Oc2cccc(c2)C[C@H]1C(=O)NCC(F)(F)F	4
Cn1cc(CNC(=O)[C@@H]2Cc3cccc(c3)Oc3cccc(c3)C[C@H](N3CCCS3(=O)=O)C(=O)N[C@@H](CCN3CCCCC3)C(=O)N2)cn1	> 140
C[C@H](NC(=O)[C@@H]1Cc2cccc(c2)Oc2cccc(c2)C[C@H](N2CCCC2=O)C(=O)N[C@@H](CCN2CCCCC2)C(=O)N1)C1CC1	> 120
C[C@@H](NC(=O)[C@@H]1Cc2cccc(c2)Oc2cccc(c2)C[C@H](N2CCCC2=O)C(=O)N[C@@H](CCN2CCCCC2)C(=O)N1)C1CC1	> 140
O=C(NCC(F)(F)F)[C@@H]1Cc2cccc(c2)Oc2cccc(c2)C[C@H](N2CCCC2=O)C(=O)N[C@@H](CCN2CCCCC2)C(=O)N1	> 140
CC(=O)N[C@H]1Cc2cccc(c2)Oc2cccc(c2)C[C@@H](C(=O)NCC(F)(F)F)NC(=O)[C@H](CCC(F)(F)F)NC1=O	< 1.2
O=C(NCC1CC1)[C@@H]1Cc2cccc(c2)Oc2cccc(c2)C[C@H](N2CCCC2=O)C(=O)N[C@@H](CCN2CCOCC2)C(=O)N1	> 130
O=C(NCC(F)(F)F)[C@@H]1Cc2cccc(c2)Oc2cccc(c2)C[C@H](N2CCCC2=O)C(=O)N[C@@H](CCc2ccccc2)C(=O)N1	3.8
Cn1cc(CNC(=O)[C@@H]2Cc3cccc(c3)Oc3cccc(c3)C[C@H](NS(C)(=O)=O)C(=O)N[C@@H](CCN3CCCCC3)C(=O)N2)cn1	> 140
CC(=O)N[C@H]1Cc2cccc(c2)Oc2cccc(c2)C[C@@H](C(=O)NCC(F)(F)F)NC(=O)[C@H](CCc2ccccc2)NC1=O	< 1.4
O=C(NCC(F)(F)F)[C@@H]1Cc2cccc(c2)Oc2cccc(c2)C[C@H](N2CCCC2=O)C(=O)N[C@@H](CCN2CCC[C@@H](F)C2)C(=O)N1	> 130
CC(=O)N[C@H]1Cc2cccc(c2)Oc2cccc(c2)C[C@@H](C(=O)NCC(F)(F)F)NC(=O)[C@H](CC(C)C)NC1=O	< 1.4
CC1(CNC(=O)[C@@H]2Cc3cccc(c3)Oc3cccc(c3)C[C@H](N3CCCC3=O)C(=O)N[C@@H](CCN3CCCCC3)C(=O)N2)CC1	> 130
O=C(NCC(F)(F)F)[C@@H]1Cc2cccc(c2)Oc2cccc(c2)C[C@H](N2CCCC2=O)C(=O)N[C@@H](Cc2ccccc2)C(=O)N1	22
CN1C(=O)[C@H](CCc2ccccc2)NC(=O)[C@@H](N2CCCC2=O)Cc2cccc(c2)Oc2cccc(c2)C[C@H]1C(=O)NCC(F)(F)F	4.2
COC[C@@H]1NC(=O)[C@@H](NC(C)=O)Cc2cccc(c2)Oc2cccc(c2)C[C@@H](C(=O)NCC(F)(F)F)NC1=O	14
